In patent publication US8252807B2, “Methods of inhibiting the interaction between S100 and the receptor for advanced glycation end-products” (Board of Regents, The University of Texas System, priority 2007, dated 2012):

Experiments:
[1] = test system: BxPC-3 cells; test: BxPC-3 cell growth (MTS); format: cell-based; details: 48 hours; for BxPC-3 basal cell proliferation, mean: 0 μM mean=1.2
Experimental: BxPC-3 cells were plated at 1.0×10^3 cells/well and treated with 0 μM, 1 μM, 10 μM, and 100 μM of cromolyn, and cell proliferation was analyzed after 48 hours. Means and 95% confidence intervals of three independent experiments performed in triplicate are shown. *, P=0.002; †, P<0.001 versus control. Growth of Panc-1 and BxPC3 pancreatic adenocarcinoma cells was analyzed using MTS reagent (Promega, Madison, Wis.) according to the manufacturer's directions. Purified S100P (100 nM final concentration) with or without cromolyn (100 μM final concentration) was added to Panc-1 cells. Only cromolyn (0-100 μM) was added to BxPC-3 cells, which express endogenous S100P. For both cell models, 1.0×10^3 cells/well were plated in 96-well culture dishes. Cells were treated with S100P, PDGF, or cromolyn, or a combination, followed immediately by treatment with either S100P or PDGF. MTS (20 μL per well) was added to cells at various times, and the mixture was incubated for 1 hour at 37° C. Samples were then read at 490 nm (as O.D. units) on a uQuant-Microplate Spectrophotometer (Bio-Tek Services Inc., Richmond, Va.). The assay was performed three times in triplicate.

[2] = test system: PC3 prostate cells; test: PC3 prostate cell proliferation; format: cell-based; details: 24, 48 and 72 hours
Experimental: PC3 prostate cells were cultured for up to three days in the presence of different concentrations of cromolyn, and cell proliferation was analyzed at 24, 48, and 72 hours. *, P<0.05.

[3] = test system: SW480 colon cells; test: SW480 colon cell proliferation; format: cell-based; details: cromolyn 100 μM, up to three days
Experimental: SW480 colon cells were cultured for up to three days in the presence of cromolyn (100 μM), and cell proliferation was analyzed. *, P<0.05.

[4] = background statement; cited from earlier work

SMILES: O=C(O)c1cc(=O)c2c(OCC(O)COc3cccc4oc(C(=O)O)cc(=O)c34)cccc2o1 [cromolyn, disodium 1,3-bis[(2′-carboxylatochromon-5′-yl)oxy]-2-hydroxypropane]
- BxPC-3 cell proliferation, difference versus 0 μM ([1]; cromolyn 10 μM): 0.5 MTS units
- BxPC-3 basal cell proliferation, mean ([1]; cromolyn 10 μM): 0.7 MTS units
- BxPC-3 cell proliferation, difference versus 0 μM ([1]; cromolyn 100 μM): 0.6 MTS units
- BxPC-3 basal cell proliferation, mean ([1]; cromolyn 100 μM): 0.6 MTS units
- growth of PC3 cells [2]: reduced growth
- growth of SW480 cells [3]: reduced growth
- permeability to cells [4]: impermeant to cells
